Measured values reported in the SangsterLogP compilation.

Tests used:
[1] = method code SF-AS, from Woolston, C.; Lee, J.; Swinbourne, F. (1994). Partition coefficients and chromatographic parameters of some substituted 1,3-thiazolidin-4-ones. Ind. J. Chem., Sect. B, 33(6)590-592.; settings: pH 7.4

Q: Which logP does the source give for `O=C1CSC(c2ccc(Br)cc2)N1c1ccccc1` (stereo not drawn) here?
A: 2.66

Q: Which logP does the source give for `O=C1CSC(c2cccc([N+](=O)[O-])c2)N1c1ccccc1` (stereo not drawn) here?
A: 1.73

Q: Which logP does the source give for `O=C1CSC(c2cccc(Cl)c2)N1c1ccccc1` (stereo not drawn) here?
A: 2.32

Q: With `O=C1CSC(c2ccccc2)N1c1ccc(Br)cc1` (stereo not drawn) as the compound, how does the logP read?
A: 2.56

Q: With `O=C1CS(=O)C(c2ccccc2)N1c1ccccc1` (stereo not drawn) as the compound, how does the logP read?
A: 1.07

Q: For `O=C1CSC(c2cccc(Br)c2)N1c1ccccc1` (stereo not drawn), which logP is on record?
A: 2.44

Q: With `O=C1CSC(c2ccccc2)N1c1cccc(Br)c1` (stereo not drawn) as the compound, how does the logP read?
A: 2.58

Q: For `O=C1CSC(c2ccc([N+](=O)[O-])cc2)N1c1ccccc1` (stereo not drawn), which logP is on record?
A: 1.75

Q: For `Cc1cccc(C2SCC(=O)N2c2ccccc2)c1` (stereo not drawn), which logP is on record?
A: 2.3

Q: With `O=C1CSC(c2ccc(Cl)cc2)N1c1ccccc1` (stereo not drawn) as the compound, how does the logP read?
A: 2.52

Q: For `COc1cccc(C2SCC(=O)N2c2ccccc2)c1` (stereo not drawn), which logP is on record?
A: 1.96

Q: With `COc1ccc(N2C(=O)CS(=O)(=O)C2c2ccccc2)cc1` (stereo not drawn) as the compound, how does the logP read?
A: 1.09

Q: For `Cc1ccc(C2SCC(=O)N2c2ccccc2)cc1` (stereo not drawn), which logP is on record?
A: 2.48

Q: Which logP does the source give for `O=C1CS(=O)(=O)C(c2ccccc2)N1c1cccc([N+](=O)[O-])c1` (stereo not drawn) here?
A: 1.09

Q: With `O=C1CSC(c2ccccc2)N1c1cccc([N+](=O)[O-])c1` (stereo not drawn) as the compound, how does the logP read?
A: 1.9

Q: Which logP does the source give for `O=C1CSC(c2ccccc2)N1c1ccc(O)cc1` (stereo not drawn) here?
A: 1.29

Q: Which logP does the source give for `COc1ccc(N2C(=O)CSC2c2ccccc2)cc1` (stereo not drawn) here?
A: 1.92

Q: With `O=C1CS(=O)C(c2cccc(Br)c2)N1c1ccccc1` (stereo not drawn) as the compound, how does the logP read?
A: 1.63

Q: For `O=C1CSC(c2cccc(F)c2)N1c1ccccc1` (stereo not drawn), which logP is on record?
A: 1.9

Q: For `COc1ccc(C2SCC(=O)N2c2ccccc2)cc1` (stereo not drawn), which logP is on record?
A: 1.97

Q: For `N#Cc1ccc(C2SCC(=O)N2c2ccccc2)cc1` (stereo not drawn), which logP is on record?
A: 1.32

Q: Which logD [1] does the source give for `O=C1CS(=O)(=O)C(c2ccccc2)N1c1ccccc1` (stereo not drawn) here?
A: 1.23

Q: With `O=C1CSC(c2ccccc2)N1c1ccc(Cl)cc1` (stereo not drawn) as the compound, how does the logP read?
A: 2.42

Q: With `O=C1CSC(c2ccccc2)N1c1ccccc1` (stereo not drawn) as the compound, how does the logP read?
A: 1.88

Q: For `O=C1CS(=O)(=O)C(c2cccc(Br)c2)N1c1ccccc1` (stereo not drawn), which logP is on record?
A: 1.63

Q: Which logP does the source give for `Cc1ccc(N2C(=O)CSC2c2ccccc2)cc1` (stereo not drawn) here?
A: 2.32

Q: For `COc1ccc(N2C(=O)CS(=O)C2c2ccccc2)cc1` (stereo not drawn), which logP is on record?
A: 1.07

Q: With `O=C1CS(=O)C(c2ccccc2)N1c1cccc([N+](=O)[O-])c1` (stereo not drawn) as the compound, how does the logP read?
A: 1.09
